# Laboratory results reported in PubChem BioAssay AID179 (DTP/NCI, 2004).
# Activity calls are given as the source filed them.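 Rule for the calls: active = compounds giving half or more protection of infected cells from virus-caused growth loss, again on retest; inactive = the rest.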
# Tested on: CEM cells HIV-1 protection, formazan growth assay
# Assay: NCI AIDS Antiviral Assay
# Conditions: for IC50: measured here: growth of uninfected CEM cells
# Procedure: The ability of compounds to protect human CEM cells from HIV-1 infection is measured as a screen for new compounds capable of inhibiting the HIV virus. Five concentrations of drug were tested on uninfected and infected cells and cell growth was measured using a soluble formazan assay. […] Compounds that provided at least 50% protection were retested. Compounds that provided at least 50% protection on retest were listed as moderately active. Compounds that reproducibly provided 100% protection were listed as confirmed active. […] Note that the inability to provide protection could be due to toxicity.
SMILES,EC50 [µM],IC50 [µM],outcome
O=C1C[C@H](c2ccccc2)O[C@@H](c2ccccc2)C1,> 200,> 200,–
O=C(O)c1ccc(O)c(N=Nc2cc(S(=O)(=O)O)c3cccnc3c2O)c1,81.3,224,–
OCC1OC(n2cnc3c(I)ncnc32)C(O)C1O (stereo unspecified),–,–,inactive
CCCCCCCCCCCCCCCC=C(c1cc(Cl)c(OC)c(C(=O)OC)c1)c1cc(Cl)c(OC)c(C(=O)OC)c1,> 6.61,> 6.61,–
CCOC(=O)/C=C/c1cccc(Cl)c1,> 24.5,> 24.5,–
COP(=O)(Cc1ccccc1)Cc1ccccc1,> 200,> 200,–
O=C(O)C(CSSCC(NC(=O)C(F)(F)F)C(=O)O)NC(=O)C(F)(F)F (stereo unspecified),> 200,> 200,–
Cc1ccc2c(c1)CNc1ccc(C)cc1CN2,–,–,inactive
O=c1[nH]c2ncccc2c(=O)n1OS(=O)(=O)c1ccccc1,> 200,135,–
COc1cccc2nc3cc(C)c(C)cc3nc12,> 30.2,> 30.2,–
CCOC(=O)Nc1ccc(/C=C\c2ccnc3ccccc23)cc1,> 16.2,10,–
CNC(=O)N(CCC#N)CCN(CCN(C(=O)NC)c1ccccc1)C(=O)NC,> 200,> 200,–
COc1ccc(/C=N/NS(=O)(=O)c2ccccc2)cc1,–,–,inactive
COc1cc(OC)cc(C2(C#N)CCN(C)CC2)c1,> 191,> 191,–
NC(Cc1ccccc1)c1nccs1 (stereo unspecified),> 200,> 200,–
CC1NC(=O)COC1c1ccccc1 (stereo unspecified),> 200,> 200,–
c1ccc(SC2CCCCO2)cc1 (stereo unspecified),–,–,inactive
Cc1ccc2c(c1)nc1n2C(N)=Nc2ccccc2S1,> 200,11.5,–
CN1C/C(=C\c2ccc(N(C)C)cc2)C(=O)/C(=C/c2ccc(N(C)C)cc2)C1,> 100,> 100,–
Cc1cc(N(CCC#N)CCC#N)ccc1CC1N=C(c2ccccc2)OC1=O (stereo unspecified),> 93.3,> 93.3,–
C1=Cc2ccccc2/C1=C/c1cc2c3c(c1)CCCN3CCC2,> 43.7,> 43.7,–
O=c1[nH]c2ccccc2c(O)c1/C=N/C(=S)NC1CCCCC1,> 200,> 200,–

SMILES,EC50 [µM],IC50 [µM],outcome
O=c1c2c(c1=O)-c1ccccc1CN2,> 200,> 200,–
Cn1c(=O)[nH]c(N2CCOCC2)c(C#N)c1=S,> 200,> 200,–
O=[N+]([O-])c1cccc2c([As](=O)(O)O)cccc12,> 200,91.2,–
COc1cccc(/C=N/[N-]C(=O)c2ccncc2)c1[O-].[OH3+].[Zn+2],> 2.95,> 2.95,–
CO[C@@]12[C@@H]3N[C@@H]3CN1C1=C(C(=O)C(N(C)c3ccc(O)cc3)=C(C)C1=O)[C@@H]2COC(N)=O,> 200,1.35,–
Cc1cn(C2CC(Br)=NO2)c(=O)[nH]c1=O (stereo unspecified),> 200,34.7,–
CC(Oc1ccc2c(-c3ccc(Cl)cc3)cc(=O)oc2c1)C(=O)O (stereo unspecified),–,–,inactive
Cc1cc(C)c2c(c1)CC2N (stereo unspecified),> 1350,490,–
CC(C)(C)NC(=O)C12C3C4C1C1C2C3C41C(=O)NC(C)(C)C (stereo unspecified),–,–,inactive
CCc1ccc(C2=C(O)C(=O)C(c3ccc(CC)cc3)=C(O)C2=O)cc1,> 70.8,9.77,–
CC(=O)C1CCC2C3CC4OCC5(CCC(O)CC45Br)C3CCC12C (stereo unspecified),> 200,40.7,–
COc1ccc(OC)c2cc(Cc3ccc(N(C)C)cc3)c(=O)c(Cc3ccc(N(C)C)cc3)cc12,> 200,43.7,–
COc1ccc(/C=N/n2cnc3c(c2=O)SC(=C(C#N)C#N)N3c2ccccc2)cc1,> 6.17,> 6.17,–
COC1=CC(=O)c2c(O)c3c(c(O)c2C1=O)C[C@](C)(O)C[C@@H]3O,–,–,inactive
O=C(/C=C/c1ccc(O)cc1)CC(=O)/C=C/c1ccc(O)cc1,> 200,9.55,–
COP(=O)(Cc1ccc(/C=C/C#N)o1)OC,> 200,> 200,–
N#C/C(=C\c1ccccc1F)C(=O)c1ccccc1,> 75.9,> 75.9,–
CCSc1cccc(C(=O)O)c1,> 513,> 513,–
COC(=O)C(Cc1c[nH]c2ccccc12)NP(=O)(O)OCC1OC(n2cc(I)c(=O)[nH]c2=O)CC1O (stereo unspecified),> 200,> 200,–
COc1cc(COC(=O)N2CC=CC2C(=O)O)c([N+](=O)[O-])cc1OC (stereo unspecified),> 708,> 708,–
CCO[C@@H]1OC(=O)[C@H]2C(c3ccc(Cl)cc3)=NO[C@@H]12,> 35.5,> 35.5,–
CC1CN(C(=O)CN2CCC(CCCCN(C)C)CC2)c2ccccc2NC1=O (stereo unspecified),> 251,> 251,–
